Source: PMC6003606 (Chemical Science, 2016)
Read-outs that look alike come from different tables or passages of the source.

Legend:
MCF-7 = assay: Cytotoxicity, 72 h exposure, breast carcinoma; format: cell-based, human; conditions: MCF-7, 72 h exposure
A549 = assay: Cytotoxicity, 72 h exposure, lung carcinoma; format: cell-based, human; conditions: A549, 72 h exposure
HCT-15 = assay: Cytotoxicity, 72 h exposure, colon carcinoma; format: cell-based, human; conditions: HCT-15, 72 h exposure
PC3 = assay: Cytotoxicity, 72 h exposure, prostate carcinoma; format: cell-based, human; conditions: PC3, 72 h exposure
A498 = assay: Cytotoxicity, 72 h exposure, kidney carcinoma; format: cell-based, human; conditions: A498, 72 h exposure
BxPC3 = assay: Cytotoxicity, 72 h exposure, pancreatic carcinoma; format: cell-based, human; conditions: BxPC3, 72 h exposure
A375 = assay: Cytotoxicity, 72 h exposure, melanoma; format: cell-based, human; conditions: A375, 72 h exposure
[1] = system: cancer cell lines (panel); assay: Cytotoxicity averaged or compared over the cancer cell line panel; format: cell-based, human; conditions: for IC50: read-out: average IC50
[2] = system: HDAC activity in MCF-7 cells; conditions: free ligand; reported values, no reference given; cited from earlier work
A2780 = assay: Cytotoxicity, 72 h exposure, cisplatin-sensitive ovarian cancer cells; format: cell-based, human; conditions: A2780, 72 h exposure
A2780cisR = assay: Cytotoxicity, 72 h exposure, cisplatin-resistant ovarian cancer cells; format: cell-based, human
[3] = average over five cancer cell lines
[4] = average over the seven cancer cell lines

Compound	IC50 (MCF-7) [µM]	IC50 (A549) [µM]	IC50 (HCT-15) [µM]	IC50 (PC3) [µM]	IC50 (A498) [µM]	IC50 (BxPC3) [µM]	IC50 (A375) [µM]	IC50 [1, 3] [µM]	cytotoxic IC50 of uncoordinated HDAC inhibitor ligands ([1]; tested cancer cell lines)	IC50 of extracellular ligand for cellular HDAC activity [2]	IC50 (A2780) [nM]	IC50 (A2780cisR) [µM]	IC50 [1, 4] [µM]	IC50 ([1]; over the nine cell lines) [µM]
N.N.[Cl-].[Cl-].[OH-].[OH-].[Pt+4] [IX, ctc-[Pt(NH3)2(OH)2Cl2]]	11.5 ± 3.71	22.5 ± 4.54	15.3 ± 3.23	2.98 ± 1.35	22 ± 0.85	6.23 ± 1.47	1.93 ± 0.75	7						
CCCC(CCC)C(=O)O [VPA, valproate]									millimolar range	mM range				
N.N.[Cl][Pt][Cl] [cisplatin]	17.4 ± 0.2	8.35 ± 0.87	11.3 ± 1.06	2.25 ± 0.82	17.5 ± 1.21	11.4 ± 1.14	4.03 ± 0.95				2800 ± 200	13.8 ± 0.2	10.3	9.9
O=C1[O][Pt]2([NH][C@@H]3CCCC[C@H]3[NH]2)[O]C1=O [oxaliplatin]	3.36 ± 0.2	1.46 ± 0.31	1.15 ± 0.43	5.24 ± 0.86	7.94 ± 1.04	4.15 ± 0.93	6.3 ± 1.11				520 ± 270	4.2 ± 1.6	4.2	
[Pt(DACH)(OH)2(ox)]	19.9 ± 1.41	26.1 ± 2.89	18.9 ± 3.18	5.85 ± 1.08	24.4 ± 5.35	14.3 ± 2.09	6.85 ± 1.55	13.2						
